The values that follow come from patent US4382958A, “Secondary amines and compositions for treatment of hypoglycaemia or obesity” (priority 1980, dated 1983).

Test [1] has as its system Female CFLP mice. In words: Effect on energy expenditure and food intake of mice. It is filed as in vivo. To be noted: Mus musculus, % of mice dosed with water; for response vs control in vivo at 18.5 mg/kg: 18.5 mg/kg po; for response vs control in vivo at 20 mg/kg: 20.0 mg/kg po; for response vs control in vivo at 22.2 mg/kg: 22.2 mg/kg po; for response vs control in vivo at 24.5 mg/kg: 24.5 mg/kg po. The protocol:
Female CFLP mice each weighing approximately 24 g were given food and water ad lib before and during the experiment. The compounds were dissolved in water by addition of one mole of hydrochloric acid per mole of compound and these solutions were administered orally to each of 12 mice. A further 12 mice were dosed orally with water. The mice were placed in boxes through which air was drawn and the oxygen content of the air leaving the boxes was measured. The energy expenditure of the mice was calculated for 21 hours after dosing from the volume of air leaving the boxes and its oxygen content following the principles described by J. B. de V. Weir, J. Physiol. […] The food intake of the mice was measured over this same period of 21 hours. The results are expressed as a percentage of the mean food intake or rate of energy expenditure of the mice dosed with water.

Another test concerns Rat hearts. In words: Cardiac activity: rat hearts perfused by the Langendorff procedure. The protocol:
Rat hearts were perfused by the Langendorff procedure.
Hearts were dissected free within 30 seconds of death and reverse perfused via the aorta and coronary vessels with Krebs-Ringer bicarbonate solution (pH 7.4, 37° C.) gassed with 95% oxygen: 5% carbon dioxide at a flow rate between 8-12 cm^3 /minute. Responses were observed after injection of drug dissolved in isotonic saline into the perfusion media.
Results are expressed as a percentage of the maximum response due to salbutamol.

Test [2] has as its system Female CFLP mice. In words: Hypoglycaemic activity: blood glucose of fasted mice after subcutaneous glucose. The class given is in vivo. The note with it: Mus musculus, 2 hour period after glucose, vs control mice given water, read-out: REDUCTION IN AREA UNDER BLOOD GLUCOSE CURVE (%); for inhibition in vivo at 1 µmol/kg: 1.0 μ mol/kg oral. The procedure:
Female CFLP mice, weighing approximately 25 g, were fasted for 24 hours prior to the study. The compounds under study were administered orally as an aqueous solution to each of 8 mice. 30 minutes later a blood sample ([…]) was obtained from the tail for the analysis of blood glucose. Immediately after taking this blood sample, glucose (1 g/kg body weight) was administered subcutaneously to each mouse. 8 mice were given water as a control. Blood samples were then obtained from each mouse at 30 minute intervals for 120 minutes.
Compounds that produced a significant (P<0.05) reduction on blood glucose, compared with control mice given water, at any time interval, were considered active. The area under the blood glucose curve over the 2 hour period after the administration of the glucose was calculated for each compound and compared with the value for control animals.

In a further test the test system is rat ear. In words: Topical anti-inflammatory activity: croton oil inflammation of the rat ear. The class given is in vivo. To be noted: 6 hours, activity = significant (5% level) reduction in ear weight vs non-drug treated control. The procedure:
The method used is based on that described by G. Tonelli et al (Endocrinology, 77, 625-634, 1965). An inflammation is induced in the rat ear by the application of 50 μl of a 1% solution of croton oil in tetrahydrofuran, test compounds being dissolved in the irritant vehicle. After 6 hours the inflammation is assessed by killing the animals and weighing the ears. Topical anti-inflammatory activity of a compound is generally considered to be shown when a significant (5% level) reduction in ear weight is seen compared to non-drug treated control.

Test [3] relates to Platelet aggregation (response to collagen). In words: Platelet aggregation inhibition activity: response to intravenous collagen in mice. It is filed as in vivo. The note with it: 1 μ mol/kg po; two hours before collagen 400 μg/kg i.v. The procedure:
Male CFLP mice (ca 20 g, n=8) were dosed orally with compound or vehicle (controls) after an overnight fast. Two hours later each mouse received an intravenous dose of collagen (400 μg/kg, pH 6-6.6). Exactly 30 sec. after injection of collagen, each mouse was placed in a chamber of CO2 until respiration ceased. […] Each concentration was expressed as a percent of that obtained in a tail blood sample taken immediately before injection of collagen.

The next test concerns genetically obese mice. In words: Anti-obesity activity: carcass lipid of genetically obese mice after oral gavage daily for 28 days. It is filed as in vivo. To be noted: 12.2 mg/kg p.o. daily for 28 days, control 18.75. The procedure: The compound of Example 5 was administered by oral gavage in water or carboxymethyl-cellulose suspension to genetically obese mice daily for 28 days. At the end of the time the carcass composition was determined.

[4] abbreviates: 0-3h, read-out: MEAN ENERGY EXPENDITURE (%) 0-3h.
Setting [5] is: 0-21h, read-out: MEAN ENERGY EXPENDITURE (%) 0-21h.
The mark [6] stands for this setting: over 21 hours, read-out: MEAN FOOD INTAKE (%).
Where [7] appears, read: 30 μg added to perfusate, percentage of the maximum response due to salbutamol, read-out: HEART RATE.
Where [8] appears, read: 30 μg added to perfusate, percentage of the maximum response due to salbutamol, read-out: HEART TENSION.

Read-outs that look alike come from different tables or passages of the source.

`CC(Cc1ccc(OCCO)cc1)NCC(O)c1ccccc1F` (centres unmarked) [Example 1, N-[2-(4-(2-Hydroxyethoxy)phenyl)-1-methylethyl]-2-hydroxy-2-(2-fluorophenyl)ethanamine]: the response vs control in vivo at 18.5 mg/kg was 176% with Female CFLP mice [1] (setting [4]), 128% in the test with Female CFLP mice [1] (setting [5]) and 70% in the test on Female CFLP mice [1] (setting [6]). For the same compound, the Emax in the test with Rat hearts (setting [7]) came out at 63%; with Rat hearts (setting [8]), 53%. Besides, the inhibition in vivo at 3 µmol/kg in the test with Female CFLP mice [2] (3.0 μ mol/kg oral) was 61%. In addition, the “ACTIVITY (topical anti-inflammatory)” value in the test with rat ear (2 mg/rat ear topical) is listed as “Active”.

As for `CC(Cc1ccc(OCCO)cc1)NCC(O)c1cccc(C(F)(F)F)c1` (centres unmarked) [Example 3, N-[2-(4-(2-Hydroxyethoxy)-phenyl)-1-methylethyl]-2-hydroxy-2-(3-trifluoromethylphenyl)ethanamine], the response vs control in vivo at 20 mg/kg came out at 178% in the test with Female CFLP mice [1] (setting [4]), 134% in the test with Female CFLP mice [1] (setting [5]) and 82% with Female CFLP mice [1] (setting [6]). The Emax was determined as 17% with Rat hearts (setting [7]) and 50% with Rat hearts (setting [8]). The inhibition in vivo at 2.5 µmol/kg with Female CFLP mice [2] (2.5 μ mol/kg oral) was determined as 52%. Also, the “% INHIBITION OF RESPONSE TO COLLAGEN” value in test [3] is listed as 47%.

Consider `CC(Cc1ccc(OCCCO)cc1)NCC(O)c1cccc(C(F)(F)F)c1` (centres unmarked) [Example 4, N-[2-(4-(3-Hydroxypropoxy)phenyl)-1-methylethyl]-2-hydroxy-2-(3-trifluoromethylphenyl)-ethanamine], for which the response vs control in vivo at 22.2 mg/kg was 179% in the test on Female CFLP mice [1] (setting [4]), 121% in the test on Female CFLP mice [1] (setting [5]) and 75% with Female CFLP mice [1] (setting [6]). Besides, the Emax stood at 7% with Rat hearts (setting [7]) and 0% in the test with Rat hearts (read-out: HEART TENSION). Also, in the test with Female CFLP mice [2], the inhibition in vivo at 1 µmol/kg is 31%. Also, the “ACTIVITY (topical anti-inflammatory)” value in the test with rat ear (0.5 mg/rat ear topical) is given as “Active”.

As for `CC(Cc1ccc(OCCCCCCO)cc1)NCC(O)c1cccc(C(F)(F)F)c1` (centres unmarked) [Example 5, N-[2-(4-(6-Hydroxyhexyloxy)phenyl)-1-methylethyl]-2-hydroxy-2-(3-trifluoromethylphenyl)-ethanamine], the “g LIPID/MOUSE, TREATED” value in the test on genetically obese mice is 15.80 g LIPID/MOUSE. Moreover, the response vs control in vivo at 24.5 mg/kg in the test with Female CFLP mice [1] (setting [4]) was determined as 213%; with Female CFLP mice [1] (setting [5]), 129%; in the test with Female CFLP mice [1] (setting [6]), 103%. Further, the Emax in the test on Rat hearts (setting [7]) and in the test on Rat hearts (setting [8]) was 0% in each case. In addition, the inhibition in vivo at 1 µmol/kg in the test with Female CFLP mice [2] is 59%. Moreover, in test [3], the “% INHIBITION OF RESPONSE TO COLLAGEN” value was determined as 47%.
